# Literature values in paper PMC7775502, “Molecular Screening Strategy to Identify a Non-invasive Delivery Mechanism for the Treatment of Middle Ear Disorders” (Frontiers in Medicine, 2020).
# Assays:
# [1] = test system: intact tympanic membrane (TM); settings: peptide phage, incubation 1 h on the exterior surface of the TM, ref Kurabi et al. ([26])
# Description: Table 1 The sequences and ME recovery of the trans-TM, 12-mer backbone peptides (TMT-2 and TMT-3) plus the top 18-mer peptide phages from the 18-mer screen. | column: Mean recovery from ME (PFUs)
# [2] = test system: intact TM of ex vivo ME bulla; settings: review of the authors' earlier work
# Procedure: In order to learn more about the mechanisms of phage transport phenomena, several experiments were designed to evaluate the impact of concentration, temperature, and oxygen levels on transport across the TM. […] Next, we tested the sensitivity of transport to oxygen deprivation and temperature using the ex vivo, intact ME bulla. When ME recovery of phage TMT-3 was assessed at various times after death, transport was observed up to 6 h postmortem, after which it ceased. Wh ...
# [3] = test system: human TM; settings: in vitro two-chamber assay, discarded TM fragments from patients undergoing TM repair; ref [28]
# Description: (§1) We first tested trans-TM phage TMT-3 transport across TMs from NTHi-infected MEs of rats as well as from rats with normal MEs.
# [4] = test system: rabbit TM fragments; settings: in vitro two-chamber assay, uninfected MEs; ref [28]
# Description: as §1
# [5] = test system: rat TM; settings: in vitro two-chamber assay, ref [28]
# Description: as §1
# [6] = test system: guinea pig TM fragments; design: method as in PMID 30087425; settings: in vitro two-chamber assay, uninfected MEs; ref [28]
Sequence,Mean recovery from ME (PFUs) [1],other results
"SPTIFSTLSPKMPGGGYW [TMT-2(18)-2, M13 bacteriophage expressing 18-mer trans-TM peptide […] on pIII protein]","12,000 PFUs",–
"LANNNLTLSPKMPGGGYW [TMT-2(18)-1, M13 bacteriophage expressing 18-mer trans-TM peptide […] on pIII protein]",120 PFUs,–
"SADSTKTTHLTL [TMT-3, M13 bacteriophage expressing 12-mer trans-TM backbone peptide […] on pIII protein]","10,800 PFUs","Transport at lowered bulla temperature ([2]; 4°C, transport over 1 h): almost entirely eliminated; Time after death up to which transport was observed ([2]; ME recovery of phage at various times postmortem, transport ceased afterwards): up to 6 h; Transport across human TM [3]: comparable levels; Transport across uninfected rabbit TM fragments compared with other species [4]: similar; Transport across TMs from NTHi-infected MEs versus normal MEs ([5]; 1.5 mm chambers, rat TMs): no difference in transport; Transport across uninfected rat TM fragments compared with other species ([5]; uninfected MEs): similar; Transport across uninfected guinea pig TM fragments compared with other species [6]: similar"
"KISVYRSADSTKTTHLTL [TMT-3(18)-2, M13 bacteriophage expressing 18-mer trans-TM peptide […] on pIII protein]","40,000 PFUs",–
"TLSPKMPGGGYW [TMT-2, M13 bacteriophage expressing 12-mer trans-TM backbone peptide […] on pIII protein]","5,900 PFUs",–
"TEVTSRSADSTKTTHLTL [TMT-3(18)-3, M13 bacteriophage expressing 18-mer trans-TM peptide […] on pIII protein]",280 PFUs,–
"VPQGATTLSPKMPGGGYW [TMT-2(18)-3, M13 bacteriophage expressing 18-mer trans-TM peptide […] on pIII protein]","3,000 PFUs",–
"EGHLFPSADSTKTTHLTL [TMT-3(18)-1, M13 bacteriophage expressing 18-mer trans-TM peptide […] on pIII protein]","90,000 PFUs",–
